# In patent US20130171103A1, “METHODS FOR TREATING VIRAL CONDITIONS” (PTC Therapeutics, Inc., priority 2010, published 2013):
# Several values for one entry are separate records, joined by “and”; a condition that tells them apart may be missing. Identical values can stand only once.
# Tests used:
# HT1080 cells = assay: Cell cycle analysis by propidium iodide staining and flow cytometry; assay type: cell-based; details: for % Cells In S-Phase: HT1080 cells, 100 nM, 18 hours, DMSO control 17.3, >20% considered active; for % Cells In S-Phase / effect on cell cycle distribution: normoxic; for effect on cell cycle distribution: #10 0.3-100 nM, 1205 10 nM
# in vitro [1] = details: African green monkey, CC50 (μM)
# [2] = Safety pharmacology studies
# Text: (§1) Nonclinical safety testing further supports clinical development of Compound #10.
# HIV-1 [3] = assay: HIV-1 CPE protection assay in MT-2 cells; assay type: cell-based; details: Human immunodeficiency virus 1, MT2; HIV-1, Retro, MT-2, CPE protection
# Protocol: (§2) The activity against HIV-1 was tested in MT2 cells and PBMCs in cell culture by preventing virus induced cytopathic effect and measuring viral p24 protein in the culture supernatant.
# Adenovirus = Adenovirus CPE protection assay in HeLa cells; assay type: cell-based; details: unidentified adenovirus, DNA
# HIV-1 [4] = assay: HIV-1 p24 ELISA assay in PBMCs; assay type: cell-based; details: Human immunodeficiency virus 1, PBMC, HIV-1, Retro
# Protocol: as §2
# [5] = Cytotoxicity (CC50) in PBMCs; assay type: cell-based; details: human, HIV-1 line
# HSV-1 = HSV-1 CPE protection assay in Vero cells; assay type: cell-based, herpes simplex virus-1; details: Human alphaherpesvirus 1, HSV-1, DNA
# [6] = Phase 1b and Phase 2 studies in patients with neoplasia (safety); assay type: in vivo, human; details: 0.3 mg/kg/dose BID to 200 mg/dose TID, at least 4-6 weeks
# Protocol: To date, doses of 0.3 mg/kg/dose (˜20 mg/dose) (n=6), 0.6 mg/kg/dose (˜40 mg/dose) (n=9), 1.2 mg/kg/dose (˜80 mg/dose) (n=12) BID have been tested for at least 4 weeks. In addition, 100 mg/dose BID (n=52), 100 mg/dose TID (n=6), 120 mg/dose TID (n=3), 160 mg/dose TID (N=3), and 200 mg/dose TID (n=3) have been tested for at least 6 weeks of continuous treatment.
# [7] = Cytotoxicity (CC50) in HeLa cells; details: human
# Dengue 2 = Dengue 2 CPE protection assay in Vero E6 cells; assay type: cell-based; details: Dengue virus, Vero C1008, Dengue 2, (+) RNA
# Genotoxicity studies = assay: Genotoxicity studies
# Text: as §1
# Parainfluenza = Parainfluenza CPE protection assay in Vero cells; assay type: cell-based, parainfluenza virus; details: (−) RNA
# [8] = Toxicology study in rats through 28 days; assay type: in vivo; details: doses and exposures in excess of therapeutic nonclinical doses
# Text: as §1
# [9] = Phase 1a single-dose study in healthy volunteers; assay type: in vivo, human; details: healthy subjects, single doses through 3 mg/kg (~210 mg), highest single dose tested
# Protocol: Initial clinical evaluation of Compound #10 was performed in healthy volunteers.
# HT 1080 cells = assay: Kinetics of S-phase transit by BrdU incorporation into DNA; assay type: cell-based; details: 18-hour treatment
# Protocol: HT 1080 cells are exposed to BrdU (bromodeoxyuridine, a synthetic nucleoside that is an analogue of thymidine and is incorporated into DNA during the S phase of cell division) (FITC BrdU Flow Kit, BD Pharmingen catalog #552598). Cells are grown and treated as described in Section 9.3.1.3 above with the exception that one hour prior to harvesting by trypsinization, BrdU (final concentration 1 μM) is added to each culture for 1 hour. Cells actively replicating DNA during this brief time incorporate the BrdU into the DNA, which can then be quantified. BrdU content is quantified using the FITC BrdU Flow Kit as instructed by the manufacturer. The process includes fixation (paraformaldehyde) and DNA staining with 7-AAD (7-amino-actinomycin D) followed by incubation with a fluoro-tagged anti-BrdU antibody that specifically recognizes BrdU incorporated into DNA. Dual channel FACS analysis permits assessment of both the DNA content of individual cells and the rate of transit across the S-phase, which is assessed based upon BrdU incorporation over the one hour treatment period.
# Vero = details: WNV line
# in vitro [10] = details: dog
# RSV = RSV CPE protection assay in Vero cells; assay type: cell-based; details: human respiratory syncytial virus
# in vitro [11] = details: African green monkey
# HCV genotype 1b replicon = assay: HCV subgenomic replicon assay, genotype 1b, standard cell culture; assay type: cell-based, hepatitis C virus
# HT1080 spheroids = assay: 3-dimensional growth of HT1080 spheroids (BrdU/7-AAD FACS, morphology); assay type: cell-based
# Influenza A = assay: microbe, parasite or virus in culture; assay type: cell-based; details: MDCK
# [12] = Cytotoxicity (CC50) in MT-2 cells; assay type: cell-based; details: human, MT-2, HIV-1 line
# in vitro [13] = details: human
# [14] = Toxicology study in dogs through 28 days; assay type: in vivo; details: doses and exposures in excess of therapeutic nonclinical doses
# Text: as §1
# [15] = Bioavailability in vivo from aqueous suspension; details: administered in an aqueous suspension
# Protocol: It is anticipated that Compound 1205 can be clinically administered via a solid-dosage form. For all the studies outlined herein, Compound 1205 was lyophilized prior to formulation to minimize batch-to-batch variations in particle-size.
# The compound was dissolved in acetonitrile at a concentration of 15 mg/mL. An equal amount of water was added to bring the final concentration to 7.5 mg/mL in a 1:1 acetonitrile/water solution (v/v). The solution was frozen on the shelf of the freeze dryer for a minimum of 3 hours and then lyophilized. The resulting solid was determined to be amorphous by differential scanning calorimetry and polarized light microscopy. Suspensions were prepared by the addition of 0.5% HPMC with 1% Tween-80, followed by stirring and homogenization for 2 minutes.
smiles,measurement,setting,value
O=C(Oc1ccc(Cl)cc1)N1CCc2c([nH]c3ccc(Cl)cc23)C1c1ccc(OCCN2CCOCC2)cc1 (stereo not drawn) [Compound 331],% Cells In S-Phase,HT1080 cells,16.4%
COc1ccc([C@H]2c3[nH]c4ccc(Cl)cc4c3CCN2C(=O)Oc2ccc(Cl)cc2)cc1 (racemic) [#10],CC50,in vitro [1],0.7 µM and 0.083 µM
same,safety pharmacology finding,[2],no adverse off-target effects
same,IC50,HIV-1 [3],22 nM
same,IC50,Adenovirus,> 1000 nM
same,IC90,Adenovirus,> 1000 nM
same,IC50,HIV-1 [4],> 1000 nM
same,CC50,[5],680 nM
same,IC50,HSV-1,> 1000 nM
same,IC90,HSV-1,> 1000 nM
same,clinical tolerability,[6],generally well tolerated
same,CC50,[7],> 1000 nM
same,concentration from which an accumulation of cells in S phase is observed,"HT1080 cells; HT1080, 18 hours",≥ 1 nM
same,effect on cell cycle distribution,"HT1080 cells; HT1080, 18 hours",induced a redistribution of the cycling characteristics of the cell population
same,IC50,Dengue 2,> 1000 nM
same,IC90,Dengue 2,> 1000 nM
same,genotoxicity finding,Genotoxicity studies,no evidence of genotoxic effects
same,IC50,Parainfluenza,29 nM
same,IC90,Parainfluenza,44 nM
same,tolerability in toxicology study,[8],good tolerability
same,clinical safety,[9],acceptable safety
same,BrdU incorporated by individual cells during one-hour pulse versus DMSO control,HT 1080 cells,less BrdU
same,percentage of cells residing in S-phase,HT 1080 cells; increasing doses (1-100 nM),net increase
same,CC50,Vero,> 1000 nM
same,CC50,in vitro [10],> 1000 nM
same,IC50,RSV,250 nM
same,IC90,RSV,≥ 160 nM
same,CC50,in vitro [11],> 1000 nM
same,antiviral activity in HCV replicon systems,HCV genotype 1b replicon,potent in vitro inhibitory activity
same,percentage of spheroid cells that incorporated BrdU (cells in S-phase),"HT1080 spheroids; 24 or 48 hours, 10 nM or 50 nM",not significantly altered
same,gross morphology of spheroids,"HT1080 spheroids; day 5 of treatment, 10 nM or 50 nM",indistinguishable from one another
same,morphology of spheroids,HT1080 spheroids; maintained in presence of compound for three weeks,no obvious morphological changes
same,cell cycle distribution of HT1080 spheroids,HT1080 spheroids; treated for 24 hours,not affected
same,cell cycle distribution of HT1080 spheroids,HT1080 spheroids; treated for 48 hours,not affected
same,IC50,Influenza A,> 1000 nM
same,IC90,Influenza A,> 1000 nM
same,CC50,[12],4.1 nM
same,CC50,in vitro [13],> 1000 nM
same,tolerability in toxicology study,[14],good tolerability
O=C(Oc1ccc(Cl)cc1)N1CCc2c([nH]c3ccc(Cl)cc23)[C@@H]1c1ccc(OCC[C@H](O)CO)cc1 [Compound 1205],effect on cell cycle distribution,"HT1080 cells; HT1080, 18 hours",induced a redistribution of the cycling characteristics of the cell population
same,bioavailability in vivo,[15],bioavailable
O=C(Oc1ccc(Cl)cc1)N1CCc2c([nH]c3ccc(Cl)cc23)C1c1ccc(OCCN2CCCCC2)cc1 (stereo not drawn) [Compound 1736],% Cells In S-Phase,HT1080 cells,16.8%
